From ChEMBL document CHEMBL3132778, “Structureactivity relationships of tetrahydrocarbazole derivatives as antifungal lead compounds” (Medchemcomm, 2013)
In brackets after ≈: the same amount, converted by molar mass.

Key:
Candida tropicalis = test: Antifungal activity against Candida tropicalis after 24 hrs by serial dilution method; type: functional
Candida parapsilosis = test: Antifungal activity against Candida parapsilosis after 24 hrs by serial dilution method; type: functional; conditions: Lodderomyces parapsilosis
Cryptococcus neoformans = test: Antifungal activity against Cryptococcus neoformans after 72 hrs by serial dilution method; type: functional
Aspergillus fumigatus = test: Antifungal activity against Aspergillus fumigatus after 7 days by serial dilution method; type: functional; conditions: 168 h
Kluyveromyces marxianus = test: Antifungal activity against Candida kefyr after 24 hrs by serial dilution method; type: functional
Candida albicans = test: Antifungal activity against Candida albicans after 24 hrs by serial dilution method; type: functional
Trichophyton rubrum = test: Antifungal activity against Trichophyton rubrum by serial dilution method; type: functional
Nannizzia gypsea = test: Antifungal activity against Microsporum gypseum by serial dilution method; type: functional
[1] = Inhibition of Saccharomyces cerevisiae NMT

| SMILES | MIC80 (Candida tropicalis) [µg/mL] | MIC80 (Candida parapsilosis) [µg/mL] | MIC80 (Cryptococcus neoformans) [µg/mL] | MIC80 (Aspergillus fumigatus) [µg/mL] | MIC80 (Kluyveromyces marxianus) [µg/mL] | MIC80 (Candida albicans) [µg/mL] | MIC80 (Trichophyton rubrum) [µg/mL] | MIC80 (Nannizzia gypsea) [µg/mL] | IC50 [1] [nM] |
| --- | --- | --- | --- | --- | --- | --- | --- | --- | --- |
| O=C(Nc1ccccc1)c1ccc2c(c1)c1c(n2CCCNCc2ccccc2)CCCC1 | > 64 | > 64 | 64 (≈ 146 µM) | > 64 | > 64 | 32 (≈ 73.1 µM) | – | – | – |
| Cc1ccc2c(c1)c1c(n2CCCNCc2ccccc2F)CCCC1 | 32 (≈ 91.3 µM) | > 64 | > 64 | 16 (≈ 45.7 µM) | 16 (≈ 45.7 µM) | > 64 | 64 (≈ 183 µM) | – | – |
| Cc1ccc2c(c1)c1c(n2CC(O)CNCc2ccccc2)CCCC1 (stereo unspecified) | 64 (≈ 184 µM) | 64 (≈ 184 µM) | 4 (≈ 11.5 µM) | 64 (≈ 184 µM) | 64 (≈ 184 µM) | 16 (≈ 45.9 µM) | 16 (≈ 45.9 µM) | 16 (≈ 45.9 µM) | – |
| O=C(c1ccc2c(c1)c1c(n2CCCNCc2ccccc2)CCCC1)c1nccs1 | > 64 | > 64 | > 64 | > 64 | > 64 | 32 (≈ 74.5 µM) | – | – | – |
| Cc1ccc2c(c1)c1c(n2CCCNCc2ccccc2Cl)CCCC1 | > 64 | > 64 | > 64 | > 64 | > 64 | > 64 | > 64 | – | – |
| Cc1ccc2c(c1)c1c(n2CCCNCc2ccc(Cl)cc2Cl)CCCC1 | > 64 | > 64 | > 64 | > 64 | > 64 | > 64 | > 64 | – | – |
| OC(Cn1cncn1)(Cn1cncn1)c1ccc(F)cc1F [FLUCONAZOLE] | 2 (≈ 6.53 µM) | 4 (≈ 13.1 µM) | 1 (≈ 3.27 µM) | > 64 | 4 (≈ 13.1 µM) | 0.5 (≈ 1.63 µM) | 1 (≈ 3.27 µM) | 1 (≈ 3.27 µM) | – |
| OCc1ccc2c(c1)c1c(n2CCCNCc2ccccc2)CCCC1 | > 64 | > 64 | > 64 | > 64 | > 64 | > 64 | – | – | – |
| CCOC(=O)c1ccc2c(c1)c1c(n2CCCNCc2ccccc2)CCCC1 | > 64 | > 64 | > 64 | > 64 | > 64 | > 64 | – | – | – |
| COc1ccc(CNCCCn2c3c(c4cc(C)ccc42)CCCC3)cc1 | 8 (≈ 22.1 µM) | 16 (≈ 44.1 µM) | 16 (≈ 44.1 µM) | 16 (≈ 44.1 µM) | 16 (≈ 44.1 µM) | 32 (≈ 88.3 µM) | 8 (≈ 22.1 µM) | – | – |
| O=C(c1ccc2c(c1)c1c(n2CCCNCc2ccccc2)CCCC1)c1ccccn1 | > 64 | > 64 | 64 (≈ 151 µM) | > 64 | > 64 | 64 (≈ 151 µM) | – | – | – |
| Cc1ccc2c(c1)c1c(n2CCCNCc2cccnc2)CCCC1 | 16 (≈ 48 µM) | 64 (≈ 192 µM) | 64 (≈ 192 µM) | 64 (≈ 192 µM) | 16 (≈ 48 µM) | 64 (≈ 192 µM) | 4 (≈ 12 µM) | 0.0625 (≈ 0.187 µM) | – |
| Cc1c(C(=O)c2ccccn2)oc2cccc(OCCCNCc3cccnc3)c12 | 8 (≈ 19.9 µM) | 4 (≈ 9.96 µM) | > 64 | > 64 | 4 (≈ 9.96 µM) | 4 (≈ 9.96 µM) | 64 (≈ 159 µM) | > 64 | – |
| O=C(OC1CCCCC1)c1ccc2c(c1)c1c(n2CCCNCc2ccccc2)CCCC1 | > 64 | > 64 | > 64 | > 64 | > 64 | 64 (≈ 144 µM) | – | – | – |
| Cc1ccc2c(c1)c1c(n2CCCNCc2cccc(F)c2)CCCC1 | > 64 | 64 (≈ 183 µM) | 64 (≈ 183 µM) | > 64 | > 64 | > 64 | 64 (≈ 183 µM) | – | – |
| O=C(NCc1ccccc1)c1ccc2c(c1)c1c(n2CCCNCc2ccccc2)CCCC1 | > 64 | > 64 | 64 (≈ 142 µM) | > 64 | > 64 | > 64 | – | – | – |
| O=C(Nc1ccc(Br)cc1)c1ccc2c(c1)c1c(n2CCCNCc2ccccc2)CCCC1 | > 64 | > 64 | 16 (≈ 31 µM) | 64 (≈ 124 µM) | > 64 | 32 (≈ 62 µM) | – | – | – |

| SMILES | MIC80 (Candida tropicalis) [µg/mL] | MIC80 (Candida parapsilosis) [µg/mL] | MIC80 (Cryptococcus neoformans) [µg/mL] | MIC80 (Aspergillus fumigatus) [µg/mL] | MIC80 (Kluyveromyces marxianus) [µg/mL] | MIC80 (Candida albicans) [µg/mL] | MIC80 (Trichophyton rubrum) [µg/mL] | MIC80 (Nannizzia gypsea) [µg/mL] | IC50 [1] [nM] |
| --- | --- | --- | --- | --- | --- | --- | --- | --- | --- |
| Cc1ccc2c(c1)c1c(n2CCCNC2CCCCC2)CCCC1 | – | – | > 64 | > 64 | – | > 64 | – | 4 (≈ 12.3 µM) | – |
| Cc1ccc2c(c1)c1c(n2CCCNCc2ccccc2)CCCC1 | 32 (≈ 96.2 µM) | 16 (≈ 48.1 µM) | 1 (≈ 3.01 µM) | 32 (≈ 96.2 µM) | 32 (≈ 96.2 µM) | 16 (≈ 48.1 µM) | 4 (≈ 12 µM) | 0.0156 (≈ 0.0469 µM) | – |
| O=C(OCc1ccc2c(c1)c1c(n2CCCNCc2ccccc2)CCCC1)c1ccccc1 | > 64 | > 64 | > 64 | > 64 | > 64 | > 64 | – | – | – |
| Cc1ccc2c(c1)c1c(n2CC(O)CNCc2cccnc2)CCCC1 (stereo unspecified) | – | – | 64 (≈ 183 µM) | 64 (≈ 183 µM) | – | > 64 | – | 16 (≈ 45.8 µM) | – |
| O=C(OC1CCNCC1)c1ccc2c(c1)c1c(n2CCCNCc2ccccc2)CCCC1 | 8 (≈ 18 µM) | 32 (≈ 71.8 µM) | 32 (≈ 71.8 µM) | > 64 | 64 (≈ 144 µM) | 32 (≈ 71.8 µM) | – | – | – |
| Cc1ccc2c(c1)c1c(n2CCCNCc2ccc(F)cc2)CCCC1 | 8 (≈ 22.8 µM) | 32 (≈ 91.3 µM) | 8 (≈ 22.8 µM) | 32 (≈ 91.3 µM) | 16 (≈ 45.7 µM) | 64 (≈ 183 µM) | 8 (≈ 22.8 µM) | – | – |
| Cc1ccc2c(c1)c1c(n2CCCNc2ccccc2)CCCC1 | 16 (≈ 50.2 µM) | 16 (≈ 50.2 µM) | 16 (≈ 50.2 µM) | 16 (≈ 50.2 µM) | 16 (≈ 50.2 µM) | 64 (≈ 201 µM) | 16 (≈ 50.2 µM) | 0.0625 (≈ 0.196 µM) | – |
| Cc1ccc(C(=O)c2ccc3c(c2)c2c(n3CCCNCc3ccccc3)CCCC2)nc1 | > 64 | > 64 | > 64 | > 64 | > 64 | 64 (≈ 146 µM) | – | – | – |
| Cc1ccc(CNCCCn2c3c(c4cc(C)ccc42)CCCC3)cc1 | 16 (≈ 46.2 µM) | 32 (≈ 92.3 µM) | 8 (≈ 23.1 µM) | 32 (≈ 92.3 µM) | 16 (≈ 46.2 µM) | 32 (≈ 92.3 µM) | 8 (≈ 23.1 µM) | – | – |
| Cc1ccc2c(c1)c1c(n2C[C@@H](O)CNC2CCCCC2)CCCC1 | 64 (≈ 188 µM) | 16 (≈ 47 µM) | 16 (≈ 47 µM) | 64 (≈ 188 µM) | 64 (≈ 188 µM) | 64 (≈ 188 µM) | 16 (≈ 47 µM) | 16 (≈ 47 µM) | 24 |
| Cc1ccc2c(c1)c1c(n2CC(O)CNc2ccccc2)CCCC1 (stereo unspecified) | – | – | > 64 | > 64 | – | > 64 | – | 1 (≈ 2.99 µM) | – |
| O=C(Oc1ccccc1)c1ccc2c(c1)c1c(n2CCCNCc2ccccc2)CCCC1 | > 64 | > 64 | > 64 | 64 (≈ 146 µM) | > 64 | 64 (≈ 146 µM) | – | – | – |
| CN1CCC(OC(=O)c2ccc3c(c2)c2c(n3CCCNCc3ccccc3)CCCC2)CC1 | 32 (≈ 69.6 µM) | 64 (≈ 139 µM) | 16 (≈ 34.8 µM) | 32 (≈ 69.6 µM) | 32 (≈ 69.6 µM) | 32 (≈ 69.6 µM) | – | – | – |
| Cc1ccc2c(c1)c1c(n2CCCNCc2cccc(Cl)c2)CCCC1 | > 64 | > 64 | 32 (≈ 87.2 µM) | > 64 | 64 (≈ 174 µM) | > 64 | > 64 | – | – |
| c1ccc(CNCCCn2c3c(c4cc(CNc5ccccc5)ccc42)CCCC3)cc1 | > 64 | > 64 | > 64 | > 64 | > 64 | 32 (≈ 75.5 µM) | – | – | – |
| Cc1ccc2c(c1)c1c(n2CCCNCc2ccc(Cl)cc2)CCCC1 | 64 (≈ 174 µM) | 32 (≈ 87.2 µM) | > 64 | 16 (≈ 43.6 µM) | 16 (≈ 43.6 µM) | > 64 | > 64 | – | – |
